Numbers after ± are expanded uncertainties.
Tests used:
[1] = molar heat capacity at constant pressure; settings: 101.33 kPa, Crystal, DSC
[2] = 298.15 K, 101.3 kPa, Crystal
[3] = xn = mol fraction of the nth substance listed; settings: 298.15 K, 101.3 kPa, Crystal, x2 = 0
[4] = molar heat capacity at constant pressure; xn = mol fraction of the nth substance listed; settings: 101.3 kPa, Crystal, DSC, x2 = 0

[O-2].[O-2].[Th+4] [thorium dioxide]
Settings | mass density [kg/m3] | molar heat capacity at constant pressure [J/K/mol]
[1], 300 K | – | 62.1 ± 7.7
[1], 310 K | – | 61.8 ± 6.4
[1], 320 K | – | 62.8 ± 7.3
[1], 330 K | – | 63.5 ± 6
[1], 340 K | – | 64.2 ± 5.5
[1], 350 K | – | 65.1 ± 6.8
[1], 360 K | – | 65.6 ± 6.8
[1], 370 K | – | 65.9 ± 6.8
[1], 380 K | – | 66.8 ± 7.2
[1], 390 K | – | 67.3 ± 7.2
[1], 400 K | – | 67.7 ± 6.8
[1], 410 K | – | 68 ± 6.8
[1], 420 K | – | 68.4 ± 6.8
[1], 430 K | – | 68.6 ± 7.2
[1], 440 K | – | 68.9 ± 7.4
[1], 450 K | – | 69.6 ± 7.4
[1], 460 K | – | 69.8 ± 7.2
[1], 470 K | – | 70.1 ± 8.2
[1], 480 K | – | 70.2 ± 7.4
[1], 490 K | – | 70.5 ± 6.1
[1], 500 K | – | 70.7 ± 7.1
[1], 510 K | – | 70.9 ± 6.3
[1], 520 K | – | 71.2 ± 6.5
[1], 530 K | – | 71.4 ± 6.5
[1], 540 K | – | 71.7 ± 6.5
[1], 550 K | – | 71.9 ± 7.1
[1], 560 K | – | 72 ± 5.4
[1], 570 K | – | 72.1 ± 6.5
[1], 580 K | – | 72.3 ± 5.1
[1], 590 K | – | 72.5 ± 5.3
[1], 600 K | – | 72.5 ± 7.1
[1], 610 K | – | 72.5 ± 5.3
[1], 620 K | – | 73 ± 5.3
[1], 630 K | – | 73 ± 5.8
[1], 640 K | – | 73.3 ± 3.8
[1], 650 K | – | 73.6 ± 5.5
[1], 660 K | – | 73.5 ± 4
[1], 670 K | – | 73.6 ± 3.8
[1], 680 K | – | 73.6 ± 7.1
[1], 690 K | – | 73.4 ± 4
[1], 700 K | – | 73.8 ± 4
[1], 710 K | – | 74.5 ± 4
[1], 720 K | – | 74.5 ± 4
[1], 730 K | – | 74.6 ± 3.8
[1], 739 K | – | 74.7 ± 3.7
[1], 750 K | – | 74.6 ± 3.2
[1], 760 K | – | 75 ± 3.3
[1], 770 K | – | 75.3 ± 3.9
[1], 780 K | – | 75.3 ± 3.7
[1], 790 K | – | 75.3 ± 3.7
[1], 800 K | – | 75.7 ± 3.2
[1], 810 K | – | 75.7 ± 3.3
[1], 820 K | – | 75.7 ± 3.3
[1], 830 K | – | 75.9 ± 3.5
[1], 840 K | – | 76 ± 3.7
[1], 850 K | – | 76.1 ± 4.3
[1], 860 K | – | 76.4 ± 4
[1], 870 K | – | 76.1 ± 4.2
[2], From pellet mass and volume | 9390 ± 1900 | –
[2], X-ray diffraction | 10000 ± 30 | –
[2], buoyancy | 9430 ± 1900 | –

[O-2].[O-2].[U+4] [uranium dioxide]
Settings | mass density [kg/m3] | molar heat capacity at constant pressure [J/K/mol]
[1], 300 K | – | 64.6 ± 7
[1], 310 K | – | 66.2 ± 7.6
[1], 320 K | – | 66.8 ± 7.4
[1], 330 K | – | 67.7 ± 7.6
[1], 340 K | – | 68.7 ± 7.6
[1], 350 K | – | 69.1 ± 6.9
[1], 360 K | – | 69.5 ± 7.8
[1], 370 K | – | 70.5 ± 8
[1], 380 K | – | 71.2 ± 7.8
[1], 390 K | – | 71.2 ± 7.1
[1], 400 K | – | 72.5 ± 8
[1], 410 K | – | 72.8 ± 8.4
[1], 420 K | – | 73.4 ± 7.3
[1], 430 K | – | 73.5 ± 7.5
[1], 440 K | – | 74.4 ± 6.4
[1], 450 K | – | 74.6 ± 6.6
[1], 460 K | – | 74.9 ± 6.9
[1], 470 K | – | 75.5 ± 8.8
[1], 480 K | – | 76.2 ± 7.3
[1], 490 K | – | 76.4 ± 5.5
[1], 500 K | – | 76.5 ± 7.5
[1], 510 K | – | 76.6 ± 5.5
[1], 520 K | – | 76.7 ± 7
[1], 530 K | – | 77.1 ± 5.5
[1], 540 K | – | 77 ± 5.7
[1], 550 K | – | 77.1 ± 5.9
[1], 560 K | – | 77.3 ± 7.1
[1], 570 K | – | 77.9 ± 7.7
[1], 580 K | – | 78.2 ± 7.5
[1], 590 K | – | 79 ± 6.3
[1], 600 K | – | 79.1 ± 9.2
[1], 610 K | – | 79.7 ± 3.7
[1], 620 K | – | 79.4 ± 3.3
[1], 630 K | – | 79.6 ± 7.9
[1], 640 K | – | 80.3 ± 4.1
[1], 650 K | – | 79.8 ± 4.3
[1], 660 K | – | 80.5 ± 6.5
[1], 670 K | – | 80.5 ± 4.3
[1], 680 K | – | 80.7 ± 5.9
[1], 690 K | – | 81.1 ± 3.3
[1], 700 K | – | 80.4 ± 3.4
[1], 710 K | – | 80.8 ± 4.4
[1], 720 K | – | 81.2 ± 3.5
[1], 730 K | – | 81.7 ± 4.5
[1], 740 K | – | 82.2 ± 4.6
[1], 750 K | – | 82.9 ± 3.4
[1], 760 K | – | 82.4 ± 4.6
[1], 770 K | – | 82.7 ± 4.6
[1], 780 K | – | 83.4 ± 4.5
[1], 790 K | – | 83.9 ± 4.5
[1], 800 K | – | 83.7 ± 4.2
[1], 810 K | – | 84.1 ± 4.2
[1], 820 K | – | 83.8 ± 4.8
[1], 830 K | – | 84.2 ± 4.8
[1], 840 K | – | 84.1 ± 4.8
[1], 850 K | – | 83.7 ± 3.5
[1], 860 K | – | 84.1 ± 4.4
[1], 870 K | – | 84.5 ± 4.4
[2], From pellet mass and volume | 10570 ± 2100 | –
[2], X-ray diffraction | 10970 ± 40 | –
[2], buoyancy | 10660 ± 2100 | –

[O-2].[O-2].[U+4] [uranium dioxide] + [O-2].[O-2].[Th+4]
Settings | mass density [kg/m3] | molar heat capacity at constant pressure [J/K/mol]
[3], From pellet mass and volume | 10570 ± 2100 | –
[3], X-ray diffraction | 10970 ± 40 | –
[3], buoyancy | 10660 ± 2100 | –
[4], 300 K | – | 64.6 ± 7
[4], 310 K | – | 66.2 ± 7.6
[4], 320 K | – | 66.8 ± 7.4
[4], 330 K | – | 67.7 ± 7.6
[4], 340 K | – | 68.7 ± 7.6
[4], 350 K | – | 69.1 ± 6.9
[4], 360 K | – | 69.5 ± 7.8
[4], 370 K | – | 70.5 ± 8
[4], 380 K | – | 71.2 ± 7.8
[4], 390 K | – | 71.2 ± 7.1
[4], 400 K | – | 72.5 ± 8
[4], 410 K | – | 72.8 ± 8.4
[4], 420 K | – | 73.4 ± 7.3
[4], 430 K | – | 73.5 ± 7.5
[4], 440 K | – | 74.4 ± 6.4
[4], 450 K | – | 74.6 ± 6.6
[4], 460 K | – | 74.9 ± 6.9
[4], 470 K | – | 75.5 ± 8.8
[4], 480 K | – | 76.2 ± 7.3
[4], 490 K | – | 76.4 ± 5.5
[4], 500 K | – | 76.5 ± 7.5
[4], 510 K | – | 76.6 ± 5.5
[4], 520 K | – | 76.7 ± 7
[4], 530 K | – | 77.1 ± 5.5
[4], 540 K | – | 77 ± 5.7
[4], 550 K | – | 77.1 ± 5.9
[4], 560 K | – | 77.3 ± 7.1
[4], 570 K | – | 77.9 ± 7.7
[4], 580 K | – | 78.2 ± 7.5
[4], 590 K | – | 79 ± 6.3
[4], 600 K | – | 79.1 ± 9.2
[4], 610 K | – | 79.7 ± 3.7
[4], 620 K | – | 79.4 ± 3.3
[4], 630 K | – | 79.6 ± 7.9
[4], 640 K | – | 80.3 ± 4.1
[4], 650 K | – | 79.8 ± 4.3
[4], 660 K | – | 80.5 ± 6.5
[4], 670 K | – | 80.5 ± 4.3
[4], 680 K | – | 80.7 ± 5.9
[4], 690 K | – | 81.1 ± 3.3
[4], 700 K | – | 80.4 ± 3.4
[4], 710 K | – | 80.8 ± 4.4
[4], 720 K | – | 81.2 ± 3.5
[4], 730 K | – | 81.7 ± 4.5
[4], 740 K | – | 82.2 ± 4.6
[4], 750 K | – | 82.9 ± 3.4
[4], 760 K | – | 82.4 ± 4.6
[4], 770 K | – | 82.7 ± 4.6
[4], 780 K | – | 83.4 ± 4.5
[4], 790 K | – | 83.9 ± 4.5
[4], 800 K | – | 83.7 ± 4.2
[4], 810 K | – | 84.1 ± 4.2
[4], 820 K | – | 83.8 ± 4.8
[4], 830 K | – | 84.2 ± 4.8
[4], 840 K | – | 84.1 ± 4.8
[4], 850 K | – | 83.7 ± 3.5
[4], 860 K | – | 84.1 ± 4.4
[4], 870 K | – | 84.5 ± 4.4
